Results reported in EP0326329B1, “Quinazoline derivatives useful as insecticides” (Dow AgroSciences LLC, priority 1988, dated 1989).

Assays:
Type in all cases: in vivo
[1] = system: Southern corn rootworm (Diabrotica undecimpuctata howardi Barber); assay: Mite/insect screen, soil treatment (CRW); details: Diabrotica, percent mortality, soil treatment, read-out: CRW RESULTS %; for mortality at 12 ppm: CRW rate 12.00 ppm; for mortality at 24 ppm: CRW rate 24.00 ppm
Outline: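 Five 2–3 instar larvae were placed on dry sandy soil with a presoaked corn seed after the soil had received 1 mL of compound solution and dried 6–12 h; cups were kept capped at 23°C. Mortality (%) and phytotoxicity were read after standard exposure. Formulation: acetone/alcohol with emulsifiers, water-diluted.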

[2] = system: Pyricularia oryzae (rice blast); details: disease control rating, foliar spray, host rice; 400 ppm (+++ at 100 ppm)
[3] = system: Botrytis cinerea (gray mold); assay: Greenhouse Test 1, foliar spray fungicide screen (GRAY MOLD), host grape berries; details: disease control rating, 400 ppm (+++ at 100 ppm)
[4] = system: Pseudoperonospora cubensis (downy mildew); assay: Greenhouse Test 1, foliar spray fungicide screen (DOWN MDEW), host squash; details: disease control rating, 400 ppm (+++ at 100 ppm)
[5] = system: southern armyworm (Spodopetra eridania Cramer); assay: Mite/insect screen, sprayed squash leaves (SAW); details: Spodoptera eridania, percent mortality, read-out: SAW RESULTS %; for mortality at 200 ppm: spray rate 200 ppm; for mortality at 400 ppm: spray rate 400 ppm
Outline: (§1)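 Steps: formulate compound in acetone/alcohol 50:50 carrying emulsifiers; dilute with water; spray leaves until runoff on upper and lower surfaces; air-dry one hour; for armyworm, excise two […] leaves into a dish of larvae; after exposure, score mortality and plant injury.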

[6] = system: melon aphids (Aphis gossypii Glover); assay: Mite/insect screen, sprayed squash cotyledons (MA); details: Aphis gossypii, percent mortality, read-out: MA RESULTS %; for mortality at 200 ppm: spray rate 200 ppm; for mortality at 400 ppm: spray rate 400 ppm
Outline: as §1

[7] = system: Erysiphe graminis tritici (powdery mildew); assay: Greenhouse Test 1, foliar spray fungicide screen (POWD MDEW), host wheat; details: disease control rating, 400 ppm (+++ at 100 ppm)
[8] = system: Puccinia recondita tritici (leaf rust); assay: Greenhouse Test 1, foliar spray fungicide screen (LEAF RUST), host wheat; details: disease control rating, 400 ppm (+++ at 100 ppm)
[9] = system: Twospotted spider mites (Tetranychus urticae Koch); assay: Mite/insect screen, sprayed squash cotyledons (SM); details: Tetranychus urticae, percent mortality, read-out: SM RESULTS %; for mortality at 200 ppm: spray rate 200 ppm; for mortality at 400 ppm: spray rate 400 ppm
Outline: as §1

FC(F)(F)c1cccc(C(F)(F)F)c1CCOc1ncnc2ccccc12 [Example 145, 4-[2-[2,6-bis(trifluoromethyl)phenyl]ethoxy]quinazoline]
mortality at 12 ppm [1]: 0% | mortality at 24 ppm [1]: 0% | RICE BLAST [2]: +++ (+++ = 90-100% control at 100 ppm) | GRAY MOLD [3]: - (- = 0-19% control at 400 ppm) | DOWN MDEW [4]: ++ (++ = 90-100% control at 400 ppm) | mortality at 200 ppm [5]: 0% | mortality at 400 ppm [5]: 0% | mortality at 200 ppm [6]: 80% | mortality at 400 ppm [6]: 80% | POWD MDEW [7]: + (+ = 20-89% control at 400 ppm) | LEAF RUST [8]: + (+ = 20-89% control at 400 ppm) | mortality at 200 ppm [9]: 80% | mortality at 400 ppm [9]: 0%

COc1cccc(CCOc2ncnc3ccccc23)c1 [Example 13, 4-[2-(3-methoxyphenyl)ethoxy]quinazoline]
mortality at 24 ppm [1]: 0% | RICE BLAST [2]: +++ (+++ = 90-100% control at 100 ppm) | GRAY MOLD [3]: - (- = 0-19% control at 400 ppm) | DOWN MDEW [4]: +++ (+++ = 90-100% control at 100 ppm) | mortality at 400 ppm [5]: 0% | mortality at 400 ppm [6]: 90% | POWD MDEW [7]: +++ (+++ = 90-100% control at 100 ppm) | LEAF RUST [8]: +++ (+++ = 90-100% control at 100 ppm) | mortality at 400 ppm [9]: 90%

Oc1ccccc1CCOc1ncnc2ccccc12 [Example 114, 4-[2-(2-hydroxyphenyl)ethoxy]quinazoline]
mortality at 12 ppm [1]: 0% | mortality at 24 ppm [1]: 0% | RICE BLAST [2]: - (- = 0-19% control at 400 ppm) | GRAY MOLD [3]: - (- = 0-19% control at 400 ppm) | DOWN MDEW [4]: + (+ = 20-89% control at 400 ppm) | mortality at 200 ppm [5]: 0% | mortality at 400 ppm [5]: 0% | mortality at 200 ppm [6]: 60% | mortality at 400 ppm [6]: 0% | POWD MDEW [7]: - (- = 0-19% control at 400 ppm) | LEAF RUST [8]: + (+ = 20-89% control at 400 ppm) | mortality at 200 ppm [9]: 0% | mortality at 400 ppm [9]: 0%

CCOc1ccc(CCOc2ncnc3ccccc23)cc1OC [Example 21, 4-[2-(4-ethoxy-3-methoxyphenyl)ethoxy]quinazoline]
mortality at 24 ppm [1]: 100% | RICE BLAST [2]: +++ (+++ = 90-100% control at 100 ppm) | GRAY MOLD [3]: - (- = 0-19% control at 400 ppm) | DOWN MDEW [4]: +++ (+++ = 90-100% control at 100 ppm) | mortality at 400 ppm [5]: 0% | mortality at 400 ppm [6]: 80% | POWD MDEW [7]: +++ (+++ = 90-100% control at 100 ppm) | LEAF RUST [8]: +++ (+++ = 90-100% control at 100 ppm) | mortality at 400 ppm [9]: 60%

Fc1ccccc1CCOc1ncnc2ccccc12 [Example 48, 4-[2-(2-fluorophenyl)ethoxy]quinazoline]
mortality at 24 ppm [1]: 0% | RICE BLAST [2]: + (+ = 20-89% control at 400 ppm) | GRAY MOLD [3]: - (- = 0-19% control at 400 ppm) | DOWN MDEW [4]: ++ (++ = 90-100% control at 400 ppm) | mortality at 400 ppm [5]: 0% | mortality at 400 ppm [6]: 100% | POWD MDEW [7]: +++ (+++ = 90-100% control at 100 ppm) | LEAF RUST [8]: +++ (+++ = 90-100% control at 100 ppm) | mortality at 400 ppm [9]: 90%

CC(C)(C)c1ccc(CCCCOc2ncnc3ccccc23)cc1 [Example 178, 4-[4-[4-(t-butyl)phenyl]butoxy]quinazoline]
mortality at 12 ppm [1]: 0% | mortality at 24 ppm [1]: 0% | RICE BLAST [2]: - (- = 0-19% control at 400 ppm) | GRAY MOLD [3]: + (+ = 20-89% control at 400 ppm) | DOWN MDEW [4]: + (+ = 20-89% control at 400 ppm) | mortality at 200 ppm [5]: 0% | mortality at 400 ppm [5]: 0% | mortality at 200 ppm [6]: 80% | mortality at 400 ppm [6]: 100% | POWD MDEW [7]: ++ (++ = 90-100% control at 400 ppm) | LEAF RUST [8]: - (- = 0-19% control at 400 ppm) | mortality at 200 ppm [9]: 40% | mortality at 400 ppm [9]: 100%

CC(C)(C)c1ccc(CCCNc2ncnc3ccc(Cl)cc23)cc1 [Example 140, 6-chloro-N-(3-[4-(1,1-dimethylethyl)phenyl]propyl]-4-quinazoline]
mortality at 12 ppm [1]: 0% | mortality at 24 ppm [1]: 0% | RICE BLAST [2]: ++ (++ = 90-100% control at 400 ppm) | GRAY MOLD [3]: - (- = 0-19% control at 400 ppm) | DOWN MDEW [4]: ++ (++ = 90-100% control at 400 ppm) | mortality at 200 ppm [5]: 0% | mortality at 400 ppm [5]: 0% | mortality at 200 ppm [6]: 0% | mortality at 400 ppm [6]: 0% | POWD MDEW [7]: + (+ = 20-89% control at 400 ppm) | LEAF RUST [8]: + (+ = 20-89% control at 400 ppm) | mortality at 200 ppm [9]: 0% | mortality at 400 ppm [9]: 80%
